The values that follow come from patent US10988523B2, “Modified lipidated Relaxin B chain peptides and their therapeutic use” (Sanofi, priority 2018, dated 2021).

Series [1] deals with T1, RXFP1 (Homo sapiens, UniProt Q9HBX9).
T1 construct: OVCAR5 cells expressing endogenous RXFP1; endogenous in cells; host or cells: OVCAR5 cells
T1 sequence (Q9HBX9 1-757): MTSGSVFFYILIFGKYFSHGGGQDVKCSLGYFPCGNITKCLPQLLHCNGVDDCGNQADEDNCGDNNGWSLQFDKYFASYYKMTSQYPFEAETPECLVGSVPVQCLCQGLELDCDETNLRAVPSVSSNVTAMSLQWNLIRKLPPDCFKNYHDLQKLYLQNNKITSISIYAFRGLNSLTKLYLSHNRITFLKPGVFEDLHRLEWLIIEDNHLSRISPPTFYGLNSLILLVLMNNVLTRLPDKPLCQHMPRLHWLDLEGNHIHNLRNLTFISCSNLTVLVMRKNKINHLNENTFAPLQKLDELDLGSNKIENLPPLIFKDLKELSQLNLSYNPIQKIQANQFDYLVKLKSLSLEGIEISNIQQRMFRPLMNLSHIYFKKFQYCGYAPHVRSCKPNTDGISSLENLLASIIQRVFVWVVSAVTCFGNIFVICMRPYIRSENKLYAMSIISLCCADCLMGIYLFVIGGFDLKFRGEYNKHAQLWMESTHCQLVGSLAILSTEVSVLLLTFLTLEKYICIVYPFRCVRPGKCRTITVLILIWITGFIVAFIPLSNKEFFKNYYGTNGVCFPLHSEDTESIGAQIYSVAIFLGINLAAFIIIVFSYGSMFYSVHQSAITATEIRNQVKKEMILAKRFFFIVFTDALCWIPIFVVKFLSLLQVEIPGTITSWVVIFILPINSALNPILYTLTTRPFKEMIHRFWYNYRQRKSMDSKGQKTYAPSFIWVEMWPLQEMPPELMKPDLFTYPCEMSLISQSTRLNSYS
Kind of series: OVCAR5 cAMP assay (HTRF), RXFP1 agonist activity. Type of series: cell-based. The following applies: for EC50: OVCAR5 cells, cAMP HTRF, read-out: EC50 (nM), OVCAR 5 cells (cAMP); for Emax: OVCAR-5, maximal cAMP relative to H2-relaxin maximum (100%), read-out: EMax, OVCAR 5 cells (cAMP). The gist of the method:
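OVCAR5 cells (endogenous RXFP1) pretreated 40 min at 37° C with 1 mM IBMX, then exposed to peptides in serum-free medium for 30 min at 37° C. Lysate cAMP read by HTRF; EC50 from variable-slope sigmoidal fit; Emax as % of H2-relaxin maximal cAMP in same run.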

Series [2] is described as follows: Pharmacokinetic (PK) determination after i.v. or s.c. administration to rats. Format: in vivo, Sprague Dawley rats. The following applies: Sprague Dawley, Rat PK; for C0 / half-life: iv, 1 mg/kg i.v.; for C0: extrapolated plasma concentration at t=0, read-out: C0; for half-life / Cmax / Tmax / bioavailability: plasma; for half-life: read-out: T½ (converted); for Cmax / Tmax: sc, 3 mg/kg s.c.; for bioavailability: subcutaneous, 3 mg/kg s.c. vs 1 mg/kg i.v., dose-corrected AUC ratio. The gist of the method:
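Sprague Dawley rats received peptide in PBS at 1 mg/kg i.v. or 3 mg/kg s.c., dose corrected for salts, solvent and purity. Plasma analysed by LC/MS after protein precipitation; non-compartmental PK, BLQ values set to zero, F% as dose-corrected s.c./i.v. AUC ratio.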

*1 amine or outer side, *2 acyl side, *3 side chain or, on linkers, in order; H or OH if unused. Where a SMILES comes first, the peptide text is derived from it. Side-chain parts run from the residue outwards. [ ]: non-standard residue; d: D form. The star is where a group is joined. γGlu = O=C(O)[C@H](CCC(=O)[*:2])N[*:1]; Stearoyl = CCCCCCCCCCCCCCCCCC(=O)*; αMeK = C[C@](N)(CCCCN)C(=O)O; Nle = CCCC[C@H](N)C(=O)O; AEEA = NCCOCCOCC(=O)O; Aib = CC(C)(N)C(=O)O

The term EC50 denotes the concentration giving half of the maximal effect. One may read the Emax as the maximal effect, on the per cent scale that the assay sets. A word on the Cmax: it is the peak of the concentration-time curve. As usually defined, the Tmax is the time at which the peak concentration occurs. Take `CCCCCCCCCCCCCCCCCC(=O)N[C@@H](CCC(=O)N[C@@H](CCC(=O)N[C@@H](CCC(=O)N[C@@H](CCC(=O)NCCOCCOCC(=O)NCCOCCOCC(=O)NCCOCCOCC(=O)NCCCC[C@H](NC(=O)[C@H](CCCCNC(C)=O)NC(=O)[C@H](CCCCN)NC(=O)[C@H](CCCNC(=N)N)NC(=O)[C@](C)(CCCCN)NC(=O)[C@H](CO)NC(=O)[C@H](Cc1c[nH]c2ccccc12)NC(=O)[C@@H](NC(=O)[C@H](CO)NC(=O)[C@H](CCCC)NC(=O)CNC(=O)[C@H](CCC(=O)O)NC(=O)C(C)(C)NC(=O)C(C)(C)NC(=O)[C@@H](NC(=O)[C@H](CCCCNC(C)=O)NC(=O)[C@H](C)NC(=O)[C@H](CCCNC(=N)N)NC(=O)[C@@H](NC(=O)[C@H](CCCCN)NC(=O)[C@H](CCC(=O)O)NC(=O)[C@H](CCCNC(=N)N)NC(=O)CNC(=O)[C@H](CCC(=O)O)NC(=O)[C@H](CC(C)C)NC(C)=O)C(C)C)[C@@H](C)CC)[C@@H](C)O)C(N)=O)C(=O)O)C(=O)O)C(=O)O)C(=O)O` [compound 82] (Ac-LEGREKVRAK(Ac)I[Aib][Aib]EG[Nle]STWS[αMeK]RKK(Ac)K([AEEA-AEEA-AEEA-γGlu-γGlu-γGlu-γGlu-Stearoyl])-NH2): in series [1], the EC50 was found to be 0.02 nM and the Emax was found to be 89%. In addition, in series [2], the C0 is 2600 nM, the half-life was 3.4 h, the Cmax was 1200 nM and the Tmax turned out to be 7 h. Also, the bioavailability in series [2] came out at 114%.
As for `CCCCCCCCCCCCCCCCCC(=O)N[C@@H](CCC(=O)N[C@@H](CCC(=O)N[C@@H](CCC(=O)N[C@@H](CCC(=O)NCCOCCOCC(=O)NCCOCCOCC(=O)NCCOCCOCC(=O)NCCOCCOCC(=O)NCCCC[C@H](NC(=O)[C@H](CCCCN)NC(=O)[C@H](CCCCN)NC(=O)[C@H](CCCNC(=N)N)NC(=O)C(C)(C)NC(=O)[C@H](CO)NC(=O)[C@H](Cc1c[nH]c2ccccc12)NC(=O)[C@@H](NC(=O)[C@H](CO)NC(=O)[C@H](CCCC)NC(=O)CNC(=O)[C@H](CCC(=O)O)NC(=O)C(C)(C)NC(=O)C(C)(C)NC(=O)[C@@H](NC(=O)[C@H](CCCCNC(C)=O)NC(=O)[C@H](C)NC(=O)[C@H](CCCNC(=N)N)NC(=O)[C@@H](NC(=O)[C@H](CCCCN)NC(=O)[C@H](CCC(=O)O)NC(=O)[C@H](CCCNC(=N)N)NC(=O)CNC(=O)[C@H](CCC(=O)O)NC(=O)[C@H](CC(C)C)NC(C)=O)C(C)C)[C@@H](C)CC)[C@@H](C)O)C(N)=O)C(=O)O)C(=O)O)C(=O)O)C(=O)O` [compound 91] (Ac-LEGREKVRAK(Ac)I[Aib][Aib]EG[Nle]STWS[Aib]RKKK([AEEA-AEEA-AEEA-AEEA-γGlu-γGlu-γGlu-γGlu-Stearoyl])-NH2), the Emax in series [1] is 88%. In series [2], the C0 was 2900 nM, the half-life was 3 h, the Cmax worked out at 1300 nM and the Tmax amounted to 7 h. In addition, the bioavailability in series [2] is 89%.
As to `CCCCCCCCCCCCCCCCCC(=O)N[C@@H](CCC(=O)NCCOCCOCC(=O)N[C@@H](CCC(=O)N[C@@H](CCC(=O)NCCOCCOCC(=O)NCCOCCOCC(=O)NCCCC[C@H](NC(=O)[C@H](CCCCN)NC(=O)[C@H](CCCNC(=N)N)NC(=O)C(C)(C)NC(=O)[C@H](CO)NC(=O)[C@H](Cc1c[nH]c2ccccc12)NC(=O)[C@@H](NC(=O)[C@H](CO)NC(=O)[C@H](CCCC)NC(=O)CNC(=O)[C@H](CCC(=O)O)NC(=O)C(C)(C)NC(=O)C(C)(C)NC(=O)[C@@H](NC(=O)[C@H](CCC(N)=O)NC(=O)[C@H](C)NC(=O)[C@H](CCCNC(=N)N)NC(=O)[C@@H](NC(=O)[C@H](CCCCN)NC(=O)[C@H](CCC(=O)O)NC(=O)[C@H](CCCNC(=N)N)NC(=O)CNC(=O)[C@H](CCC(=O)O)NC(=O)[C@H](CC(C)C)NC(C)=O)C(C)C)[C@@H](C)CC)[C@@H](C)O)C(N)=O)C(=O)O)C(=O)O)C(=O)O` [compound 100] (Ac-LEGREKVRAQI[Aib][Aib]EG[Nle]STWS[Aib]RKK([AEEA-AEEA-γGlu-γGlu-AEEA-γGlu-Stearoyl])-NH2), in series [1], the EC50 turned out to be 0.16 nM and the Emax came to 90%. Also, in series [2], the C0 was 3100 nM, the half-life was 2.8 h, the Cmax was determined as 2360 nM and the Tmax is 7 h. For the same compound, in series [2], the bioavailability came out at 41%.
Regarding `CCCCCCCCCCCCCCCCCC(=O)N[C@@H](CCC(=O)NCCOCCOCC(=O)N[C@@H](CCC(=O)N[C@@H](CCC(=O)NCCOCCOCC(=O)NCCOCCOCC(=O)NCCCC[C@H](NC(=O)[C@H](CCCCNC(C)=O)NC(=O)[C@H](CCCCN)NC(=O)[C@H](CCCNC(=N)N)NC(=O)C(C)(C)NC(=O)[C@H](CO)NC(=O)[C@H](Cc1c[nH]c2ccccc12)NC(=O)[C@@H](NC(=O)[C@H](CO)NC(=O)[C@H](CCCC)NC(=O)CNC(=O)[C@H](CCC(=O)O)NC(=O)C(C)(C)NC(=O)C(C)(C)NC(=O)[C@@H](NC(=O)[C@H](CCCCNC(C)=O)NC(=O)[C@H](C)NC(=O)[C@H](CCCNC(=N)N)NC(=O)[C@@H](NC(=O)[C@H](CCCCN)NC(=O)[C@H](CCC(=O)O)NC(=O)[C@H](CCCNC(=N)N)NC(=O)CNC(=O)[C@H](CCC(=O)O)NC(=O)[C@H](CC(C)C)NC(C)=O)C(C)C)[C@@H](C)CC)[C@@H](C)O)C(N)=O)C(=O)O)C(=O)O)C(=O)O` [compound 101] (Ac-LEGREKVRAK(Ac)I[Aib][Aib]EG[Nle]STWS[Aib]RKK(Ac)K([AEEA-AEEA-γGlu-γGlu-AEEA-γGlu-Stearoyl])-NH2), in series [1], the EC50 came to 0.16 nM and the Emax stood at 86%. Further, in series [2], the C0 is 1800 nM, the half-life is 1.8 h, the Cmax was 1000 nM and the Tmax amounted to 7 h. For the same compound, the bioavailability in series [2] was 39%.
With `CCCCCCCCCCCCCCCCCC(=O)N[C@@H](CCC(=O)NCCOCCOCC(=O)N[C@@H](CCC(=O)N[C@@H](CCC(=O)N[C@@H](CCC(=O)NCCOCCOCC(=O)NCCOCCOCC(=O)NCCCC[C@H](NC(=O)[C@H](CCCCN)NC(=O)[C@H](CCCCN)NC(=O)[C@H](CCCNC(=N)N)NC(=O)C(C)(C)NC(=O)[C@H](CO)NC(=O)[C@H](Cc1c[nH]c2ccccc12)NC(=O)[C@@H](NC(=O)[C@H](CO)NC(=O)[C@H](CCCC)NC(=O)CNC(=O)[C@H](CCC(=O)O)NC(=O)C(C)(C)NC(=O)C(C)(C)NC(=O)[C@@H](NC(=O)[C@H](CCCCNC(C)=O)NC(=O)[C@H](C)NC(=O)[C@H](CCCNC(=N)N)NC(=O)[C@@H](NC(=O)[C@H](CCCCN)NC(=O)[C@H](CCC(=O)O)NC(=O)[C@H](CCCNC(=N)N)NC(=O)CNC(=O)[C@H](CCC(=O)O)NC(=O)[C@H](CC(C)C)NC(C)=O)C(C)C)[C@@H](C)CC)[C@@H](C)O)C(N)=O)C(=O)O)C(=O)O)C(=O)O)C(=O)O` [compound 102] (Ac-LEGREKVRAK(Ac)I[Aib][Aib]EG[Nle]STWS[Aib]RKKK([AEEA-AEEA-γGlu-γGlu-γGlu-AEEA-γGlu-Stearoyl])-NH2), in series [1], the EC50 worked out at 0.08 nM and the Emax was 80%. Further, in series [2], the C0 was 4250 nM, the half-life was 1.16 h, the Cmax was 1450 nM and the Tmax came to 8 h. Also, the bioavailability in series [2] was 78%.
